Here are results for 17 molecules from US20230117034A1, “PYRAZOLOTRIAZINES” (Bayer Aktiengesellschaft, priority 2019, published 2023).

One test addresses T1, CDK9/CycT1 (Homo sapiens, UniProt P50750).
T1 construct: Recombinant full-length His-tagged human CDK9 and CycT1; purchased Life Technologies PV4131; host or cells: insect cells
Kind of test: CDK9/CycT1 high ATP kinase assay (TR-FRET, 2 mM ATP). Particulars: 2 mM ATP (high ATP); median; read-out: CDK9/CyclinT1, 2 mM ATP (high ATP), IC50 (median). It counts as biochemical. The essentials: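 Full-length His-tagged human CDK9/CycT1 (insect cell, ~0.5 μg/mL) preincubated 15 min at 22 °C with compound in Tris pH 8.0, MgCl2, DTT buffer before reaction with biotinylated peptide substrate at high ATP (2 mM).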
Background: TR-FRET usually uses a lanthanide donor and a delayed reading to cut background.

Test [1] deals with MDA-MB-231, human breast cancer cells. Kind of test: Proliferation assay MDA-MB-231 (crystal violet, 4 days). It counts as cell-based. The conditions noted are these: MDA-MB-231 cells, median, read-out: Prolif-MDA MB-231, IC50-[mol/l] (median). Put shortly:
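Plated 4,000 cells/well, 10% FCS; 24 h later treated 0.01-10 µmol/L cpd (DMSO 0.1%), 4 d. Fix glutaraldehyde, stain 0.1% crystal violet pH 3.0, elute acetic acid, A595. Normalized to t0 plate/untreated; 4-param IC50.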

The target in test [2] is T2, CDK12 (nuclear staining in CAL-120 cells) (Homo sapiens, UniProt Q9NYV4).
T2 construct: endogenous in cells; host or cells: CAL-120 human breast cancer cells (DSMZ ACC 459)
T2 sequence (Q9NYV4 whole entry): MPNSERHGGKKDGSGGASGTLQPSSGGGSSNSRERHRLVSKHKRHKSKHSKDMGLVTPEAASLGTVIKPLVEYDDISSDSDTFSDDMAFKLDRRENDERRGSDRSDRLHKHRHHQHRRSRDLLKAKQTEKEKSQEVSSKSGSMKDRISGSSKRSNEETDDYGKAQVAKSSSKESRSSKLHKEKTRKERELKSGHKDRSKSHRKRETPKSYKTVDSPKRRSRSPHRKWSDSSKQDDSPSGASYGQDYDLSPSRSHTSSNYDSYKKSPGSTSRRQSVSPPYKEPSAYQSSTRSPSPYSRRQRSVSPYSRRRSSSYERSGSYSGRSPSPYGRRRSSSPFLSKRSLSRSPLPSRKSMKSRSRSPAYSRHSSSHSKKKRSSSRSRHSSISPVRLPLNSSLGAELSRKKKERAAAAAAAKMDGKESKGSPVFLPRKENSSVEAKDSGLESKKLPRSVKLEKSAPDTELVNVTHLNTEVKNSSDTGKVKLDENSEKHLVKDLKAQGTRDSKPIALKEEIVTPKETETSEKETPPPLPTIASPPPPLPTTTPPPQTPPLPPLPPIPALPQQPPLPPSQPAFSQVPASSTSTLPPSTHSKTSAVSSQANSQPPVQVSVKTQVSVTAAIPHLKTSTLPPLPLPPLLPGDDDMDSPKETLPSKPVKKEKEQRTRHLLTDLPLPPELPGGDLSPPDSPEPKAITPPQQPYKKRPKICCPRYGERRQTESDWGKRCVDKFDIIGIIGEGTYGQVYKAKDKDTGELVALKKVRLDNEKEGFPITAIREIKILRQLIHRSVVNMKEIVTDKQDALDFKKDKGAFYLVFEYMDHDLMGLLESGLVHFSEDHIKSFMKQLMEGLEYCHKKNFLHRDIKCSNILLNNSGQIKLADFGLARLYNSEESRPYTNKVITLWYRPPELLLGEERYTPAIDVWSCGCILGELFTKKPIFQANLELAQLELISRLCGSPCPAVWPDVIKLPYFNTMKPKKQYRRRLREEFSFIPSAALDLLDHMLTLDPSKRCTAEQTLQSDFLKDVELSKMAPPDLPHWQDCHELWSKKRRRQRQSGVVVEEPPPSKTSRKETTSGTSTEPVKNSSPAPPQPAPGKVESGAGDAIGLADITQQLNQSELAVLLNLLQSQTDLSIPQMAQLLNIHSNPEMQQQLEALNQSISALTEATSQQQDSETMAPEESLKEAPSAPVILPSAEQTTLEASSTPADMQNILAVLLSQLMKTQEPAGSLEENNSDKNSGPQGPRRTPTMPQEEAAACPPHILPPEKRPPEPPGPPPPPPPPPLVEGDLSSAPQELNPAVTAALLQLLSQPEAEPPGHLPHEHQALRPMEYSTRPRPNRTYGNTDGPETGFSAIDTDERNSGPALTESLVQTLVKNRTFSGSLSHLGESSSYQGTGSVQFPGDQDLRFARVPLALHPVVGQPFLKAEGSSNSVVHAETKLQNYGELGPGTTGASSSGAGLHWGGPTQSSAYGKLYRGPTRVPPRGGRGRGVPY
T2 sequence (O75909 whole entry partner): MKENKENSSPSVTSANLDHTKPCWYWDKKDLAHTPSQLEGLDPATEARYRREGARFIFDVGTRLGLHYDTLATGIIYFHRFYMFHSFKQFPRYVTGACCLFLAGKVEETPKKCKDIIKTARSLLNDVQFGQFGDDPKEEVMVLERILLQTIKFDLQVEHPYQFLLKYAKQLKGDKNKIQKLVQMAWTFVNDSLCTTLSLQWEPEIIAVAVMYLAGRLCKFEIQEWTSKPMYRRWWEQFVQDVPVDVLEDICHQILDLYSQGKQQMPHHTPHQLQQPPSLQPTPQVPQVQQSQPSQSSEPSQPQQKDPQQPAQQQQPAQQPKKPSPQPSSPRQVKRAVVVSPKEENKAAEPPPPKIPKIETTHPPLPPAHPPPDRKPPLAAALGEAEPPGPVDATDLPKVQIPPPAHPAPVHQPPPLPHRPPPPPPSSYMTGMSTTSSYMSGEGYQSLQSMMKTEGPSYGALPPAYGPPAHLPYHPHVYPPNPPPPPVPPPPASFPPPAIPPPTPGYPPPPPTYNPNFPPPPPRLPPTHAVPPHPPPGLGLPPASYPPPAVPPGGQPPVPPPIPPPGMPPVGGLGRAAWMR
Kind of test: CDK12 nuclear protein level: immunofluorescence/high content analysis (CAL-120). It counts as cell-based. Particulars: for DC50: CAL-120 cells, 24 h, immunofluorescence, 50% reduction of nuclear CDK12 staining intensity, median, read-out: CDK12 degradation IF, DC50- [mol/l] (median); for (IC50 CDK12 high ATP) to (Degradation DC50 CDK12) ratio: ratio of IC50 CDK12 high ATP kinase assay to DC50 CDK12 degradation (IF, CAL-120). Put shortly: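 CAL-120 cells were treated with compound for 24 h at 37 °C, fixed with PFA and immunostained for CDK12. Nuclear CDK12 intensity was quantified by automated image analysis and normalized to DMSO and control. DC50 is the concentration giving 50% reduction of nuclear staining.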

The target of test [3] is T3, CYCLIN K (nuclear staining in CAL-120 cells) (Homo sapiens, UniProt O75909).
T3 construct: endogenous in cells; host or cells: CAL-120 human breast cancer cells (DSMZ ACC 459)
T3 sequence (O75909 whole entry): as the sequence (O75909 whole entry partner) above
T3 sequence (Q9NYV4 whole entry partner): as the sequence (Q9NYV4 whole entry) above
Kind of test: CYCLIN K nuclear protein level: immunofluorescence high content analysis (CAL-120). The conditions noted are these: 24 h, 50% reduction of nuclear CCNK staining intensity, median, read-out: CYCLIN K degradation IF, DC50-[mol/l] (median). The test is classed as cell-based. Put shortly: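 CAL-120 breast cancer cells treated in dose-response for 24 h at 37 °C, PFA-fixed and immunostained for cyclin K with Hoechst counterstain. Confocal imaging quantified nuclear intensity; DC50 is the concentration giving 50% reduction of nuclear CCNK staining, normalized to DMSO and control.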

Where two headings read alike, the source gives them in different places. A value given as a limit tells only on which side of the number the result lay.

T1 sequence (P50750 whole entry): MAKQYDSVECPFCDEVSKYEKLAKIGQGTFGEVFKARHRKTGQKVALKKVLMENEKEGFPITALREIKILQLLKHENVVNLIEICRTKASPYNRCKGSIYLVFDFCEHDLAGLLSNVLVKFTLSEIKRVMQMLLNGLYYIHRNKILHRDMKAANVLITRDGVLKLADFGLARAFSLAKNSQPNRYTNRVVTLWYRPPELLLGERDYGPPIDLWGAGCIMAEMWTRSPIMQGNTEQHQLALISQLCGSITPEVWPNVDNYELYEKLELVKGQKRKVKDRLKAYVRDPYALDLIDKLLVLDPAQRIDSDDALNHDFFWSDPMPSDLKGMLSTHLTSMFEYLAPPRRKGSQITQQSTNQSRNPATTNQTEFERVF
T1 sequence (O60563 whole entry partner): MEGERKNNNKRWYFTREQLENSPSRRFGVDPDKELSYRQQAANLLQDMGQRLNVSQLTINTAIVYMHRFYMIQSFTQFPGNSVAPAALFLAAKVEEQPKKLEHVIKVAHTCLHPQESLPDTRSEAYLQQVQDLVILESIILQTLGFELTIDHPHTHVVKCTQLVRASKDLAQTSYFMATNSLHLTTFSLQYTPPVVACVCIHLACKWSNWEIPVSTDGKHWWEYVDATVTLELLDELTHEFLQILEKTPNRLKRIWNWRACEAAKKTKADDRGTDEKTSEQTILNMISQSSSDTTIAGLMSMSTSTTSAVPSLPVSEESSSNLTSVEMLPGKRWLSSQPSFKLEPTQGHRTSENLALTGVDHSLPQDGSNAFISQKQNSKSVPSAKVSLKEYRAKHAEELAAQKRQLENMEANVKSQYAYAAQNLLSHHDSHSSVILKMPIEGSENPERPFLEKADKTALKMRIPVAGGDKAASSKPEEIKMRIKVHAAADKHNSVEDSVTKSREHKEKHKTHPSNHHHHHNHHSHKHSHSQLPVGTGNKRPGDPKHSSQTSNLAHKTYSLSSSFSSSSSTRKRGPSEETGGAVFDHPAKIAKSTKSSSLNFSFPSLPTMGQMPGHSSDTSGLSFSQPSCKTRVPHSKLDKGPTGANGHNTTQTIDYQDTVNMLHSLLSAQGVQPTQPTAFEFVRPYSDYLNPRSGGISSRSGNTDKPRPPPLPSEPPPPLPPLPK

As for `CN(CC(C)(C)O)c1nc(NCc2nc3cc(F)c(F)cc3[nH]2)n2ncc(C3CC3)c2n1` [Example 319, 1-[(8-cyclopropyl-4-{[(5,6-difluoro-1H-benzimidazol-2-yl)methyl]amino}pyrazolo[1,5-a][1,3,5]triazin-2-yl)(methyl)amino]-2-methylpropan-2-ol], the IC50 at CDK9/CycT1 was above 20000 nM; in test [1] (Homo sapiens, MDA-MB-231, 96 h), 4.76 nM. For the same molecule, the DC50 was found to be 3.06 nM in test [2] and 0.492 nM in test [3]. Moreover, the “(IC50 CDK12 high ATP) to (Degradation DC50 CDK12) ratio” value in test [2] was 780.

As to `CN(CC(C)(C)O)c1nc(NCc2nc3cc(F)c(Cl)cc3[nH]2)n2ncc(Br)c2n1` [Example 338, 1-[(8-bromo-4-{[(6-chloro-5-fluoro-1H-benzimidazol-2-yl)methyl]amino}pyrazolo[1,5-a][1,3,5]triazin-2-yl)(methyl)amino]-2-methylpropan-2-ol], the IC50 on CDK9/CycT1 worked out at 8300 nM; in test [1] (Homo sapiens, MDA-MB-231, 96 h) it was 3.1 nM. Further, the DC50 was 0.894 nM in test [2] and 0.17 nM in test [3]. Besides, the “(IC50 CDK12 high ATP) to (Degradation DC50 CDK12) ratio” value in test [2] is 1320.

Turning to `CN(CC(C)(C)O)c1nc(NCc2nc3cc(F)c(F)cc3[nH]2)n2ncc(Br)c2n1` [Example 347], the IC50 was 10400 nM on CDK9/CycT1 and 4.35 nM in test [1] (Homo sapiens, MDA-MB-231, 96 h). Moreover, the DC50 stood at 2.01 nM in test [2] and 0.101 nM in test [3]. The “(IC50 CDK12 high ATP) to (Degradation DC50 CDK12) ratio” value in test [2] is recorded as 1086.

As for `Cc1cc2nc(CNc3nc(N(C)CC(C)(C)O)nc4c(Br)cnn34)[nH]c2cc1C` [Example 343, 1-[(8-bromo-4-{[(5,6-dimethyl-1H-benzimidazol-2-yl)methyl]amino}pyrazolo[1,5-a][1,3,5]triazin-2-yl)(methyl)amino]-2-methylpropan-2-ol], the IC50 is 4270 nM on CDK9/CycT1 and 2.84 nM in test [1] (Homo sapiens, MDA-MB-231, 96 h). Also, the values for the DC50 in test [2] and in test [3] were 3.56 nM and 0.0978 nM, respectively. Also, in test [2], the “(IC50 CDK12 high ATP) to (Degradation DC50 CDK12) ratio” value was found to be 53.

For `Cc1cc2nc(CNc3nc(N4CCN(C)CC4)nc4c(Br)cnn34)[nH]c2cc1C` [Example 342, 8-bromo-N-[(5,6-dimethyl-1H-benzimidazol-2-yl)methyl]-2-(4-methylpiperazin-1-yl)pyrazolo[1,5-a][1,3,5]triazin-4-amine], the IC50 was above 20000 nM on CDK9/CycT1 and 1.97 nM in test [1] (Homo sapiens, MDA-MB-231, 96 h). Besides, the values for the DC50 in test [2] and in test [3] were 2.12 nM and 0.053 nM, respectively. Moreover, the “(IC50 CDK12 high ATP) to (Degradation DC50 CDK12) ratio” value in test [2] is recorded as 3129.

On to `Cc1[nH]c(CNc2nc(N3CCOCC3)nc3c(Br)cnn23)nc1-c1ccccc1` [Example 27, 8-bromo-N-[(5-methyl-4-phenyl-1H-imidazol-2-yl)methyl]-2-(morpholin-4-yl)pyrazolo[1,5-a][1,3,5]triazin-4-amine], for which the IC50 on CDK9/CycT1 turned out to be 14700 nM. For the same molecule, in test [2], the DC50 was found to be 128 nM and the “(IC50 CDK12 high ATP) to (Degradation DC50 CDK12) ratio” value turned out to be 27. Also, the DC50 in test [3] came out at 66.3 nM.

As for `CN1C2CCC1CN(c1nc(NCc3nc4c(F)cccc4[nH]3)n3ncc(C(F)(F)F)c3n1)C2` [Example 384, N-[(4-fluoro-1H-benzimidazol-2-yl)methyl]-2-(8-methyl-3,8-diazabicyclo[3.2.1]octan-3-yl)-8-(trifluoromethyl)pyrazolo[1,5-a][1,3,5]triazin-4-amine], the IC50 is above 20000 nM on CDK9/CycT1 and 8.48 nM in test [1] (Homo sapiens, MDA-MB-231, 96 h). The values for the DC50 in test [2] and in test [3] were 11 nM and 0.662 nM, respectively. The “(IC50 CDK12 high ATP) to (Degradation DC50 CDK12) ratio” value in test [2] is 735.

As for `FC(F)(F)c1ccc2[nH]c(CNc3nc(N4CC5CCC(C4)N5)nc4c(Br)cnn34)nc2c1` [Example 354, 8-bromo-2-(3,8-diazabicyclo[3.2.1]octan-3-yl)-N-{[5-(trifluoromethyl)-1H-benzimidazol-2-yl]methyl}pyrazolo[1,5-a][1,3,5]triazin-4-amine], the IC50 at CDK9/CycT1 is above 20000 nM; in test [1] (Homo sapiens, MDA-MB-231, 96 h) it was 3.05 nM. Moreover, the results for the DC50 in test [2] and in test [3] were 71.3 nM and 1.65 nM, respectively. Moreover, the “(IC50 CDK12 high ATP) to (Degradation DC50 CDK12) ratio” value in test [2] stood at 52.

On to `CN1CCN(c2nc(NCc3nc4cc(Cl)c(Cl)cc4[nH]3)n3ncc(Br)c3n2)CC1` [Example 330, 8-bromo-N-[(5,6-dichloro-1H-benzimidazol-2-yl)methyl]-2-(4-methylpiperazin-1-yl)pyrazolo[1,5-a][1,3,5]triazin-4-amine], for which the IC50 is above 20000 nM on CDK9/CycT1 and 3.38 nM in test [1] (Homo sapiens, MDA-MB-231, 96 h). The DC50 in test [2] amounted to 2.89 nM; in test [3] it was 0.16 nM. In test [2], the “(IC50 CDK12 high ATP) to (Degradation DC50 CDK12) ratio” value is 1601.

For the molecule `Fc1ccc2[nH]c(CNc3nc(N4CCOCC4)nc4c(Cl)cnn34)nc2c1F` [Example 357], the IC50 was 10000 nM on CDK9/CycT1 and 10.4 nM in test [1] (Homo sapiens, MDA-MB-231, 96 h). Moreover, the figures for the DC50 in test [2] and in test [3] were 3.9 nM and 0.552 nM, respectively. For the same molecule, in test [2], the “(IC50 CDK12 high ATP) to (Degradation DC50 CDK12) ratio” value was 295.

In the case of `CN1C2CCC1CN(c1nc(NCc3nc4c(F)c(F)ccc4[nH]3)n3ncc(C(F)(F)F)c3n1)C2` [Example 356, N-[(4,5-difluoro-1H-benzimidazol-2-yl)methyl]-2-(8-methyl-3,8-diazabicyclo[3.2.1]octan-3-yl)-8-(trifluoromethyl)pyrazolo[1,5-a][1,3,5]triazin-4-amine], the IC50 on CDK9/CycT1 is above 20000 nM; in test [1] (Homo sapiens, MDA-MB-231, 96 h), 5.25 nM. The DC50 in test [2] was 6.68 nM; in test [3], 2.01 nM. In test [2], the “(IC50 CDK12 high ATP) to (Degradation DC50 CDK12) ratio” value is on record as 734.

As to `Fc1cc2nc(CNc3nc(N4CCOCC4)nc4c(Br)cnn34)[nH]c2cc1Cl` [Example 336, 8-bromo-N-[(6-chloro-5-fluoro-1H-benzimidazol-2-yl)methyl]-2-(morpholin-4-yl)pyrazolo[1,5-a][1,3,5]triazin-4-amine], the IC50 in test [1] (Homo sapiens, MDA-MB-231, 96 h) came out at 4.27 nM. For the same molecule, the DC50 in test [2] worked out at 3.08 nM; in test [3] it was 0.52 nM. Also, the “(IC50 CDK12 high ATP) to (Degradation DC50 CDK12) ratio” value in test [2] was found to be 256.

On to `Fc1ccc2[nH]c(CNc3nc(N4CC5CCC(C4)N5)nc4c(Cl)cnn34)nc2c1F.O=CO` [Example 360, formic acid 8-chloro-2-(3,8-diazabicyclo[3.2.1]octan-3-yl)-N-[(4,5-difluoro-1H-benzimidazol-2-yl)methyl]pyrazolo[1,5-a][1,3,5]triazin-4-amine], for which the IC50 in test [1] (Homo sapiens, MDA-MB-231, 96 h) is 5.67 nM. Further, in test [2], the DC50 was determined as 6.45 nM and the “(IC50 CDK12 high ATP) to (Degradation DC50 CDK12) ratio” value was 622. The DC50 in test [3] turned out to be 0.709 nM.

`CN(c1nc(NCc2nc3ccccc3[nH]2)n2ncc(Br)c2n1)[C@H]1C[C@H](O)C1` [Example 365, trans-3-[(4-{[(1H-benzimidazol-2-yl)methyl]amino}-8-bromopyrazolo[1,5-a][1,3,5]triazin-2-yl)(methyl)amino]cyclobutan-1-ol]: on CDK9/CycT1, the IC50 is above 20000 nM. Further, the IC50 in test [1] (Homo sapiens, MDA-MB-231, 96 h) came to 118 nM. Moreover, in test [2], the DC50 is 23.6 nM and the “(IC50 CDK12 high ATP) to (Degradation DC50 CDK12) ratio” value is given as 247.

For the molecule `CC(C)c1cnn2c(NCc3ncc(-c4ccccc4)[nH]3)nc(N3CCOCC3)nc12` [Example 30, 2-(morpholin-4-yl)-N-[(5-phenyl-1H-imidazol-2-yl)methyl]-8-(propan-2-yl)pyrazolo[1,5-a][1,3,5]triazin-4-amine], at CDK9/CycT1, the IC50 was above 20000 nM. The DC50 in test [2] was determined as 25.7 nM; in test [3], 4.1 nM. Moreover, the “(IC50 CDK12 high ATP) to (Degradation DC50 CDK12) ratio” value in test [2] came out at 115.

Consider `Clc1cc2nc(CNc3nc(N4CCOCC4)nc4c(Br)cnn34)[nH]c2cc1Cl` [Example 329, 8-bromo-N-[(5,6-dichloro-1H-benzimidazol-2-yl)methyl]-2-(morpholin-4-yl)pyrazolo[1,5-a][1,3,5]triazin-4-amine], for which the IC50 on CDK9/CycT1 came to 13800 nM. The IC50 in test [1] (Homo sapiens, MDA-MB-231, 96 h) amounted to 7.66 nM. Besides, in test [2], the DC50 was found to be 7.38 nM and the “(IC50 CDK12 high ATP) to (Degradation DC50 CDK12) ratio” value is recorded as 73.

With `Brc1cnn2c(NCc3nc4ccccc4[nH]3)nc(N3C[C@H]4CC[C@@H]3CO4)nc12` (single isomer, unassigned; enantiomer 2) [Example 391, N-[(1H-benzimidazol-2-yl)methyl]-8-bromo-2-{[1R or S-(1R*,4R*)]-2-oxa-5-azabicyclo[2.2.2]octan-5-yl}pyrazolo[1,5-a][1,3,5]triazin-4-amine (Enantiomer 2)], the IC50 on CDK9/CycT1 is above 20000 nM. Also, the IC50 in test [1] was 26.1 nM. In addition, in test [2], the DC50 came to 6.98 nM and the “(IC50 CDK12 high ATP) to (Degradation DC50 CDK12) ratio” value came out at 960.
